Measurements taken from publication PMC2834170 (Bioorganic & medicinal chemistry letters, 2010).

Tests used:
μ opioid receptor = μ opioid receptor (Homo sapiens, UniProt P35372); assay: Inhibition of μ opioid binding to CHO membranes
[1] = tested on: μ, δ and κ opioid receptors; assay: Selectivity across μ, δ and κ opioid binding to CHO membranes; conditions: for Selectivity μ/δ/κ: ratio of Ki values, CHO membranes
κ opioid receptor = κ opioid receptor (Homo sapiens, UniProt P41145); assay: Inhibition of κ opioid binding to CHO membranes
[2] = relative to ether based compound 3

Chain of μ opioid receptor (P35372 whole entry, species assumed): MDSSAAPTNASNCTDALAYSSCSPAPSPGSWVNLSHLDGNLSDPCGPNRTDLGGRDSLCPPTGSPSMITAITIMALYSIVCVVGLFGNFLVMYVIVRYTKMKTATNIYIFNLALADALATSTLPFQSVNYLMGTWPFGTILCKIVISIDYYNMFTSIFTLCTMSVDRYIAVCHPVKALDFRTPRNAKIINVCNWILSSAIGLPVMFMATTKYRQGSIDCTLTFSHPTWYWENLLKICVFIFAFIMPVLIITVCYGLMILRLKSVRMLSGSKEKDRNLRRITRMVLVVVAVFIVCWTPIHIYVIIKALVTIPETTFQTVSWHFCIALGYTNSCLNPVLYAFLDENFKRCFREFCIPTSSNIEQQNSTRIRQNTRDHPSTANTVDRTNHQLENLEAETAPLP
Chain of κ opioid receptor (P41145 whole entry): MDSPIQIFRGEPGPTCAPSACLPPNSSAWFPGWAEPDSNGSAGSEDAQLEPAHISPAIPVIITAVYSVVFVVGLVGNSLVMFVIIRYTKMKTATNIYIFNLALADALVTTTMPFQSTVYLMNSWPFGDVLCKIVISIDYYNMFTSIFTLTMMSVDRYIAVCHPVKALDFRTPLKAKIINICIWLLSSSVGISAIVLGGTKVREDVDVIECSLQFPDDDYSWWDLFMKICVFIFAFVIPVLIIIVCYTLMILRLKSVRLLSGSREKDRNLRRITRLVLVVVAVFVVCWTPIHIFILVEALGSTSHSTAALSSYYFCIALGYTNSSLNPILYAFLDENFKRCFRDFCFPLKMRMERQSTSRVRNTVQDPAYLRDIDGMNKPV

`OC(COc1ccccc1)COc1ccc2c(c1)[C@@]13CCCC[C@H]1[C@@H](C2)N(CC1CCC1)CC3` (some centres unmarked) [Compound 18] was tested, and the “weaker binding affinity at the μ opioid receptor” value (μ opioid receptor; relative to bivalent hydroxy ether 6) was 7.5 fold and the “Selectivity μ/δ/κ” value [1] was 1/13/3.
`c1cc2c(cc1OCC1CO1)[C@@]13CCCC[C@H]1[C@@H](C2)N(CC1CCC1)CC3` (some centres unmarked) [Compound 14] was tested, and the “Selectivity μ/δ/κ” value [1] was 1/27/5.
For `CCCCCCCCC(O)COc1ccc2c(c1)[C@@]13CCCC[C@H]1[C@@H](C2)N(CC1CCC1)CC3` (some centres unmarked) [Compound 15], the “weaker binding affinity at the μ and κ receptors” value ([1]; relative to bivalent ligand 12) was 3–6 fold.
In the case of `OC(CCCCC(O)COc1ccc2c(c1)[C@@]13CCCC[C@H]1[C@@H](C2)N(CC1CCC1)CC3)COc1ccc2c(c1)[C@@]13CCCC[C@H]1[C@@H](C2)N(CC1CCC1)CC3` (some centres unmarked) [Compound 10], the “Selectivity μ/δ/κ” value [1] is reported as 1/23/1.
`OC(CCCCCCC(O)COc1ccc2c(c1)[C@@]13CCCC[C@H]1[C@@H](C2)N(CC1CCC1)CC3)COc1ccc2c(c1)[C@@]13CCCC[C@H]1[C@@H](C2)N(CC1CCC1)CC3` (stereo partly drawn) [Compound 12, Bis-((−)-N-cyclobutylmethylmorphinan-3-oxy) decane-2,9-diol] was tested, and the “increase in binding affinity at the μ opioid receptor” value (μ opioid receptor; [2]) was 27 fold and the “increase in binding affinity at the κ opioid receptor” value (κ opioid receptor; [2]) was 86 fold.
`CCCCCCCCCCOc1ccc2c(c1)[C@@]13CCCC[C@H]1[C@@H](C2)N(CC1CCC1)CC3` [Compound 17] was tested, and the “weaker binding affinity at the μ opioid receptor” value (μ opioid receptor; relative to 15) was 10 fold.
In the case of `OC(COc1ccc2c(c1)[C@@]13CCCC[C@H]1[C@@H](C2)N(CC1CCC1)CC3)COc1ccc2c(c1)[C@@]13CCCC[C@H]1[C@@H](C2)N(CC1CCC1)CC3` [Compound 6], the “greater binding affinity at the μ receptor” value (μ opioid receptor; relative to des-hydroxy analog 5) is reported as 7.5 fold and the “Selectivity μ/δ/κ” value [1] is reported as 1/39/1.
In the case of `OC(COc1ccc2c(c1)[C@@]13CCCC[C@H]1[C@@H](C2)N(CC1CCC1)CC3)CC(O)COc1ccc2c(c1)[C@@]13CCCC[C@H]1[C@@H](C2)N(CC1CCC1)CC3` (some centres unmarked) [Compound 7], the “Selectivity μ/δ/κ” value [1] is reported as 7/194/1.
For `CCCCCCCCCC(=O)Oc1ccc2c(c1)[C@@]13CCCC[C@H]1[C@@H](C2)N(CC1CCC1)CC3` [Compound 16], the “Ki (nM) ± SE μ” value (μ opioid receptor; CHO membranes) was “sub-nanomolar”, the “Ki (nM) ± SE κ” value (κ opioid receptor; CHO membranes) was “sub-nanomolar” and the “Selectivity μ/δ/κ” value [1] was 1/100/1.
